Experimental findings from ChEMBL document CHEMBL1130434, “Simultaneous pharmacokinetic screening of a mixture of compounds in the dog using API LC/MS/MS analysis for increased throughput” (J Med Chem, 1997) are described below.

Series [1] is described as follows: Steady-state volume of distribution of compound when administered intravenously as a mixture (five-in-one dose) to a single dog. Type of series: ADME, organism-based, Canis lupus familiaris. The note with it: in vivo, iv, read-out: Vss.
The nature of series [2]: Elimination half-life of compound when administered intravenously as an individual dose to a single dog. Type of series: ADME, organism-based. The note with it: in vivo, iv.
The nature of series [3]: Steady-state volume of distribution of compound when administered intravenously as an individual dose to a single dog. Type of series: ADME, organism-based, Canis lupus familiaris. As to conditions: in vivo, iv, read-out: Vss.
Series [4] in a line: Clearance of compound when administered intravenously as an individual dose to a single dog. Type of series: ADME, organism-based, Canis lupus familiaris. The note with it: in vivo, iv.
Series [5] can be described thus: Elimination half-life of compound when administered intravenously as a mixture (five-in-one dose) to a single dog. Type of series: ADME, organism-based. The note with it: in vivo, iv.
A short description of series [6]: Clearance of compound when administered intravenously as a mixture (five-in-one dose) to a single dog. Type of series: ADME, organism-based, Canis lupus familiaris. The note with it: in vivo, iv.

The term half-life denotes the time in which the quantity being followed falls by half. For orientation: clearance means the rate of elimination divided by the concentration.

With `COc1ccc(CCN2CCC(c3nc(COCC(F)(F)F)c(-c4ccccc4)o3)CC2)cc1S(N)(=O)=O`, the Vd amounted to 0.473 L/kg in series [1] and 0.382 L/kg in series [3]. Moreover, the values for the half-life in series [2] and in series [5] were 1.4 h and 1.5 h, respectively. For the same compound, the clearance in series [4] was determined as 5 mL/min/kg; in series [6] it was 5.9 mL/min/kg.

As to `COc1ccc(CCN2CCC(c3nc(COCC(F)(F)F)c(-c4ccc(F)cc4)o3)CC2)cc1S(N)(=O)=O`, the Vd in series [1] was 0.33 L/kg; in series [3] it was 0.243 L/kg. The half-life is 4.2 h in series [2] and 4.9 h in series [5]. Also, the values for the clearance in series [4] and in series [6] were 0.9 mL/min/kg and 0.86 mL/min/kg, respectively.

Take `CNC(=O)CN(C)S(=O)(=O)c1cc(CCN2CCC(c3nc(COCC(F)(F)F)c(-c4ccccc4)o3)CC2)ccc1OC`: the Vd stood at 2.76 L/kg in series [1] and 3.46 L/kg in series [3]. The half-life in series [2] was 2.1 h; in series [5], 2.4 h. The clearance in series [4] came to 28.9 mL/min/kg; in series [6], 17.3 mL/min/kg.

As to `COc1ccc(CCN2CCC(c3nc(COCC(F)(F)F)c(-c4ccccc4)o3)CC2)cc1S(=O)(=O)NCCNC(C)=O`, the Vd in series [1] amounted to 2.83 L/kg; in series [3], 0.6 L/kg. In addition, the half-life in series [2] was 2.6 h; in series [5], 2.9 h. The values for the clearance in series [4] and in series [6] were 10.3 mL/min/kg and 18.7 mL/min/kg, respectively.

Turning to `CNC(=O)CN(C)S(=O)(=O)c1cc(CCN2CCC(c3nc(COCC(F)(F)F)c(-c4ccc(F)cc4)o3)CC2)ccc1OC`, the values for the Vd in series [1] and in series [3] were 2.86 L/kg and 2.91 L/kg, respectively. For the same compound, the results for the half-life in series [2] and in series [5] were 3.4 h and 3 h, respectively. The clearance in series [4] was 11.6 mL/min/kg; in series [6] it was 11.2 mL/min/kg.
